Laboratory results from patent US20020107281A1, “Phototherapeutic and chemotherapeutic immunotherapy against tumors” (Photogen, Inc., priority 2000, published 2002).

Tests used:
[1] = tested on: Murine hepatoma tumor cells (ATCC CRL-1830 Hepa 1-6); assay: Rose Bengal PDT of left-flank tumor in mice with bilateral hepatoma tumors (Example 5); type: in vivo, C57BL/6 mice
Experimental: The immunologic basis for phototherapy-induced immunity is further illustrated by the following example which is not intended to limit the present invention. Murine hepatoma tumor cells (10^6 cells, ATCC CRL-1830 Hepa 1-6) were injected subcutaneously into the left flank of immunocompetent mice (C57BL/6). Concurrent with this implantation, a smaller implantation was performed by injecting 5×10^5 tumor cells into the right flank of these mice. Tumors presented in both flanks within approximately 5-6 days of implantation. One group of mice were otherwise untreated and served as controls. […] A second group received illumination of the left-flank tumor with green light (532 nm laser light at 100 J/cm^2, 200 mW/cm^2). […] A third group received intra-lesional injection of the left-flank tumor with 50 μL of a 10% Rose Bengal solution (the right-flank tumor was not treated); the injected tumor was then illuminated 24 hours post drug administration using 532 nm laser light.

[2] = tested on: renal adenocarcinoma (RAG) tumors; assay: Rose Bengal PDT of RAG tumors in nude mice, then tumor cell rechallenge (Example 4); type: in vivo, BALB/C athymic nude mice
Excerpt: (§1) The immunologic basis for phototherapy-induced immunity is further illustrated by the following example which is not intended to limit the present invention. As an additional control, immune incompetent mice were implanted with subcutaneous tumors, treated using phototherapy, then challenged with a second dose of tumor cells. Since they are immune incompetent, the inventors believed that such mice would respond to phototherapy but fail to develop immunity to tumor cells. […] The rate of tumor development from such implantation was approximately 50% (14/28 mice developed tumors within five weeks of injection). The tumors were treated using intra-lesionally-injected Rose Bengal and green light photoactivation (1% Rose Bengal administered intra-lesionally at approximately 1 cc/cm^3 tumor volume, then illuminated 24 hours post administration using 532 nm laser light at 100 J/cm^2, 200 mW/cm^2).

[3] = tested on: subcutaneous RAG tumors; assay: Intra-lesional Rose Bengal chemotherapy of RAG tumors, immune competent mice (Example 8); type: in vivo, C57BL/6 mice; conditions: 10% solution intra-lesionally
Excerpt: as §1
(§2) The chemotherapeutic and immunologic anti-tumoral effect for the prototypical halogenated xanthene, Rose Bengal, is further illustrated by the following example which is not intended to limit the present invention. Immune competent mice (C57BL/6 mice) and immune incompetent mice (BALB/C athymic nude mice) were implanted with subcutaneous RAG tumors, as previously described in Example 4. […]

[4] = tested on: subcutaneous RAG tumors; assay: Intra-lesional Rose Bengal chemotherapy of RAG tumors, immune incompetent mice (Example 8); type: in vivo, BALB/C athymic nude mice; conditions: 10% solution intra-lesionally
Excerpt: as §1, §2

[5] = tested on: multiple superficial mast cell tumors; assay: Intra-lesional Rose Bengal chemotherapy in a dog with mast cell tumors (Example 7); type: in vivo
Experimental: This chemotherapeutic and immunologic anti-tumoral effect for the prototypical halogenated xanthene, Rose Bengal, is illustrated by the following example which is not intended to limit the present invention. An adult, female dog with multiple superficial mast cell tumors was treated by injection of several cc of a 10% solution of Rose Bengal into each of several tumors (approximately one third of the total tumors were treated in this manner). […] Such a response in the treated tumors is consistent with the expected chemotherapeutic modality of the injected Rose Bengal, while the noted decrease in non-treated tumors represents an ongoing immune assault upon remaining remote tumor tissues.

[6] = tested on: recurrent malignant fibrous histocytoma; assay: Rose Bengal injection plus 60Co irradiation of a dog's tumor (Example 1); type: in vivo
Experimental: This anti-tumoral effect for the prototypical halogenated xanthene, Rose Bengal, is illustrated by the following example which is not intended to limit the present invention. An adult, female dog with a recurrent malignant fibrous histocytoma (an undifferentiated tumor that could be considered to be a poorly differentiated mesenchymal tumor), approximately 20 cc in volume, was treated by injection of approximately 7 cc of a 10% solution of Rose Bengal at several locations throughout the tumor volume. After a period of five days, an irradiation regimen consisting of 5 daily fractions (2 Gy each) of radiation from a ^60Co source was begun in order to effect phototherapy of the tumor. […] Such a response at 5 days is consistent with a chemotherapeutic modality of the injected Rose Bengal, while continued decrease in tumor mass at 19 days is consistent with a phototherapeutic modality related to tumor irradiation. […] This continued tumor regression is consistent with ongoing immune assault upon remaining tumor tissue.

Question: `O=C([O-])c1c(Cl)c(Cl)c(Cl)c(Cl)c1-c1c2cc(I)c(=O)c(I)c-2oc2c(I)c([O-])c(I)cc12.[Na+].[Na+]` [Rose Bengal] was tested. Which “eradication of the treated left-flank tumor” value ([1]; 50 μL of 10% Rose Bengal solution intra-lesionally, 532 nm laser light 24 hours post administration) did it give?
Answer: 5/5

Question: And the “spontaneous rejection of the untreated right-flank tumor” value ([1]; left-flank tumor treated with 10% Rose Bengal and 532 nm light, right-flank tumor not treated)?
Answer: 5/5

Question: And the “effect of phototherapy on treated lesions” value ([2]; 1% Rose Bengal intra-lesionally, approximately 1 cc/cm^3 tumor volume, 532 nm laser light 100 J/cm^2 24 hours post administration)?
Answer: selective acute necrosis of treated lesions

Question: And the “tumor development after challenge with second injection of RAG tumor cells” value ([2]; seven complete responders, 10^4 tumor cells to opposite flank, five weeks following challenge (3/7 mice))?
Answer: approximately 50%

Question: And the “immediate effect of chemotherapeutic treatment on tumor” value ([3]; approximately 1 cc/cm^3 tumor volume, immune competent mice)?
Answer: immediate tumor necrosis

Question: And the cure rate ([3]; immune competent mice (6/6 mice treated), upon follow-up)?
Answer: 100%

Question: What about the “immediate effect of chemotherapeutic treatment on tumor” value ([4]; approximately 1 cc/cm^3 tumor volume, immune incompetent mice) of the same compound?
Answer: immediate tumor necrosis

Question: What about the cure rate ([4]; immune incompetent mice (0/4 mice treated), upon follow-up) of the same compound?
Answer: 0%

Question: And the “side-effects in healthy tissue surrounding the treated tumors” value ([5]; all follow-up intervals)?
Answer: no significant side-effects in healthy tissue surrounding the treated tumors

Question: What about the systemic side effects ([5]; all follow-up intervals) of the same compound?
Answer: nor any evidence of significant systemic side effects

Question: And the “size of mast cell tumors, both treated and non-treated” value ([5]; several cc of 10% solution into approximately one third of the tumors, over subsequent three month period, no light)?
Answer: marked and progressive reduction in size

Question: What about the “tumor mass at follow-up” value ([6]; 12 weeks post injection) of the same compound?
Answer: significant further reduction in tumor mass

Question: And the “tumor size after irradiation” value ([6]; 19 days post injection, after 5 daily fractions (2 Gy each) 60Co)?
Answer: further measurable decrease in tumor size

Question: What about the “side-effects in healthy tissue surrounding the tumor” value ([6]; all follow-up intervals) of the same compound?
Answer: no significant side-effects in healthy tissue surrounding the tumor

Question: What about the “tumor response before irradiation” value ([6]; approximately 7 cc of 10% solution injected into tumor, five days post injection, immediately prior to irradiation) of the same compound?
Answer: measurable decrease in tumor density along with significant edema and apparent necrosis of large sections of the tumor

Question: And the “final histologic examination for viable tumor tissue” value ([6]; approximately 12 months post-treatment)?
Answer: no evidence of viable tumor tissue was observed
